Assay results: US8614236B2 (University of Washington, priority 2006, dated 2013)
“Also recorded” adds a separate entry of the source.

How the values were obtained:
[1] = system: Beagle dogs; experiment: Dog study: arterial blood gases, ventilation and acid-base status in normoxia and hypoxia; format: in vivo
Description: The dogs were kept under highly standardized conditions and received a standardized diet five days before the experiments. […] To permit spontaneous breathing through a low resistance circuit, a face mask was attached, which enclosed the dog's snout in a leak proof fashion. This custom made mask is equipped with a 2.5 cm ID connector to connect it to a ventilator set to CPAP mode (3 4 cmH20) (Servo900C; Siemens-Elema, Erlangen/Germany).
Six dogs were studied in five different protocols in randomized order:
5) Ethoxzolamide (Sigma-Aldrich, Steinheim/Germany) intravenously: Bolus ethoxzolamide (1 mg/kg), followed by a continuous infusion of 1 mg·kg^−1·h^−1.
The hemodynamic measurements (arterial blood pressure, heart rate, central venous pressure, pulmonary artery pressure, pulmonary capillary wedge pressure), minute ventilation, renal function data, time points for blood samples for blood gases, actual bicarbonate, base excess, plasma electrolytes and hormones, measurements of plasma and urinary values were according to former studies.
Values are given as means±SEM (n=6). For intra-group comparisons a general linear model of analysis of variance (GLM-ANOVA) for repeated measures was applied (NCSS97/PASS 2000, Saugus/MA, USA). Post-hoc testing of means was performed with Student's t-test. Level of significance for error of first order was adjusted according to Holm's procedure. Statistical significance was assumed at p<0.05.

[2] = system: PASMCs; experiment: KCl-induced Ca2+ responses in PASMCs; format: cell-based, rat
Description: Intrapulmonary arteries (200-600 μm o.d.) were isolated from male Wistar rats (250-350 g) and cleaned of connective tissue. After the lumen was gently rubbed with a cotton swab to remove the endothelial cells, the arteries were allowed to recover for 30 minutes in cold (4° C.) HBSS containing (in mM): 130 NaCl, 5 KCl, 1.2 MgCl2, 1.5 CaCl2, 10 N-[2-hydroxyethyl]piperazine-N′-[2-ethanesulfonic acid] (HEPES) and 10 glucose, with pH adjusted to 7.2 with 5 M NaOH, followed by 20 minutes in reduced-Ca^2+ (20 μM CaCl2) HBSS at room temperature. […] Following digestion, single smooth muscle cells were dispersed by gentle trituration with a wide-bore transfer pipette in Ca^2+-free HBSS and the cell suspension was placed on 25 mm glass cover slips. PASMCs were transiently cultured in Ham's-F-12 media supplemented with 0.5% fetal bovine serum and 1% penicillin/streptomycin for 24-48 hrs. before study.
Acute hypoxia increases intracellular [Ca^2+] in pulmonary arterial smooth muscle by enhancing capacitative Ca^2+ entry. […] Ratiometric measurement of fluorescence from the dye was performed on a workstation (Intracellular Imaging Inc, Cincinnati, Ohio) consisting of a Nikon TSE 100 Ellipse inverted microscope with epi-fluorescence attachments. The light beam from a xenon arc lamp was filtered at 340 and 380 nm, and focused onto the PASMCS under examination via a 20× fluorescence objective (Super Fluor 20, Nikon). Light emitted from the cell at 510 nm was returned through the objective and detected by a cooled CCD imaging camera. An electronic shutter (Sutter Instruments) was used to minimize photobleaching of dye. Protocols were executed and data collected on-line with InCyte software (Intracellular Imaging Inc). [Ca^2+]i was estimated from in vitro calibration solutions.

[3] = system: Beagle dogs; experiment: Dog study: arterial blood gases, ventilation and acid-base status in normoxia and hypoxia; format: in vivo; conditions: po 5 mg/kg 12 and 1 hr before; hypoxia 3rd h
[4] = iv bolus + continuous infusion, hypoxia 2nd h
[5] = iv bolus + continuous infusion, hypoxia 3rd h
[6] = iv bolus + continuous infusion, normoxia 1st h
[7] = po 5 mg/kg 12 and 1 hr before, hypoxia 2nd h
[8] = po 5 mg/kg 12 and 1 hr before, hypoxia 3rd h
[9] = po 5 mg/kg 12 and 1 hr before, normoxia 1st h

Structure (SMILES) | BEa, arterial base excess [1, 4] [mM] | HCO3a, arterial actual bicarbonate concentration [1, 4] [mM] | PaCO2, arterial carbon dioxide tension [1, 4] [Torr] | PaO2, arterial oxygen tension [1, 4] [Torr] | VE, minute ventilation [1, 4] [L/min] | pHa, arterial pH [1, 4] | BEa, arterial base excess [1, 5] [mM] | HCO3a, arterial actual bicarbonate concentration [1, 5] [mM] | PaCO2, arterial carbon dioxide tension [1, 5] [Torr] | PaO2, arterial oxygen tension [1, 5] [Torr] | VE, minute ventilation [1, 5] [L/min] | pHa, arterial pH [1, 5] | BEa, arterial base excess [1, 6] [mM] | HCO3a, arterial actual bicarbonate concentration [1, 6] [mM] | PaCO2, arterial carbon dioxide tension [1, 6] | PaO2, arterial oxygen tension [1, 6] | VE, minute ventilation [1, 6] [L/min] | pHa, arterial pH [1, 6] | also measured
CCOc1ccc2nc(S(N)(=O)=O)sc2c1 [EZ, ethoxzolamide] | -6.2 ± 1.2 | 18.1 ± 1.3 | 26 ± 1 | 36 ± 1 | 6.4 ± 0.7 | 7.41 ± 0.01 | -6.7 ± 1.1 | 17.6 ± 1.3 | 24 ± 1 | 38 ± 1 | 6.9 ± 0.9 | 7.42 ± 0.01 | -5.3 ± 0.5 | 19.6 ± 0.6 | 33 ± 1 Torr | 105 ± 1 Torr | 4.0 ± 0.2 | 7.37 ± 0.01 | 
CC(=O)Nc1nnc(S(N)(=O)=O)s1 [AZ, acetazolamide] | -4.0 ± 0.3 | 19.0 ± 0.4 | 30 ± 1 | 37 ± 1 | 5.8 ± 0.6 |  | -5.6 ± 0.5 | 17.5 ± 0.5 | 28 ± 1 | 39 ± 1 | 7.0 ± 0.6 |  | -3.1 ± 0.5 | 20.9 ± 0.6 | 34 ± 1 Torr | 106 ± 3 Torr | 4.0 ± 0.3 |  | effect on KCl-induced increase in [Ca^2+]i ([2]; 100 μM): no effect; also recorded: not altered; [Ca^2+]i after KCl ([2]; KCl 60 mM, pretreatment 100 μM): 292.6 ± 21.2 nM; mean change in [Ca^2+]i in response to KCl ([2]; KCl 60 mM, pretreatment 100 μM, control 123.4±20.6 nM): 134.7 ± 18.2 nM; [Ca^2+]i before KCl ([2]; pretreatment 100 μM): 157.8 ± 11.9 nM; BEa, arterial base excess [1, 7]: -5.8 ± 0.4 mM; HCO3a, arterial actual bicarbonate concentration [1, 7]: 17.6 ± 0.6 mM; PaCO2, arterial carbon dioxide tension [1, 7]: 29 ± 1 Torr; PaO2, arterial oxygen tension [1, 7]: 37 ± 1 Torr; VE, minute ventilation [1, 7]: 5.9 ± 0.2 L/min; BEa, arterial base excess [1, 8]: -6.5 ± 0.4 mM; PaCO2, arterial carbon dioxide tension [1, 8]: 27 ± 1 Torr; PaO2, arterial oxygen tension [1, 8]: 38 ± 1 Torr; VE, minute ventilation [1, 8]: 6.1 ± 0.2 L/min; BEa, arterial base excess [1, 9]: -7.2 ± 0.6 mM; HCO3a, arterial actual bicarbonate concentration [1, 9]: 17.1 ± 0.7 mM; PaCO2, arterial carbon dioxide tension [1, 9]: 32 ± 1 Torr; PaO2, arterial oxygen tension [1, 9]: 108 ± 2 Torr; VE, minute ventilation [1, 9]: 4.5 ± 0.3 L/min; pHa, arterial pH [1, 9]: 7.34 ± 0.01; HCO3a, arterial actual bicarbonate concentration [3]: 16.9 ± 0.5 mM
NS(=O)(=O)c1nnc(NS(=O)(=O)c2ccccc2)s1 [BZ, benzolamide] | -4.4 ± 0.4 | 18.4 ± 0.3 | 30 ± 1 | 37 ± 1 | 4.4 ± 0.5 | 7.41 ± 0.01 | -4.9 ± 0.4 | 17.7 ± 0.4 | 29 ± 1 | 38 ± 1 | 5.1 ± 0.6 | 7.42 ± 0.01 | -4.4 ± 0.4 | 20.1 ± 0.3 | 37 ± 1^ Torr | 96 ± 1^ Torr | 3.0 ± 0.2 | 7.35 ± 0.01 | 
